Reference: patent US8975252B2, “Morpholine derivative” (Shanghai Pharmaceuticals Holding Co., Ltd., priority 2007, dated 2015)
Where a name gives a salt, the structure may show the parent alone. Read-outs that look alike come from different tables or passages of the source.

Target: Recombinant human renin (Homo sapiens (Human), UniProt P00797)
Assay: Inhibitory activity against human renin (fluorogenic synthetic peptide substrate)
Assay type: biochemical
Description: Inhibitory Activity Against Human Renin
A renin substrate of synthetic peptide (Nma-KHPFH LVIHK(Dnp)-NH2) and test compound were mixed, and fluorescence intensity was assayed using a fluorophotometer before starting an enzymatic reaction (exciting wavelength: 340 nm, measuring wavelength: 460 nm). Recombinant human renin was added and the mixture was incubated at 37° C. for an hour, and the fluorescence intensity was measured after the reaction using a fluorophotometer (exciting wavelength: 340 nm, measuring wavelength: 460 nm). Renin activity was evaluated on the ground of fluorescence intensity which was obtained by deduction of the intensity before the reaction from the intensity after the reaction, and 50% inhibitory concentration (IC50) was calculated from renin activities under the existence of various concentration of the tested compound.

[1] = recombinant human renin, substrate Nma-KHPFH LVIHK(Dnp)-NH2, 37° C. for an hour, fluorescence, read-out: Inhibitory Activity against human Renin(IC50)

Sequence of Recombinant human renin (P00797 67-406): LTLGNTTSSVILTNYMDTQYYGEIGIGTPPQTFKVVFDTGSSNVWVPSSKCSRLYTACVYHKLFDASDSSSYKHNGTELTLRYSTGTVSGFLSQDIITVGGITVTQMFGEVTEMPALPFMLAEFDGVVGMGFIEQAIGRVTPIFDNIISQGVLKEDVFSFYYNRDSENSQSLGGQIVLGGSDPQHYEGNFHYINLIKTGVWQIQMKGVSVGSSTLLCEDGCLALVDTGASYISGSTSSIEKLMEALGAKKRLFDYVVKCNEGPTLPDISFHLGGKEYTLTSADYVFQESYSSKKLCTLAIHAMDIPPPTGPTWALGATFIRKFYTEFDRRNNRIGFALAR

Question: Which IC50 (assay for renin-inhibition, read-out: renin-inhibition IC50) does the source give for `COCCCOc1cc(CN(C(=O)[C@H]2CNCCO2)C2CC2)ccc1OC` [(2R)—N-cyclopropyl-N-[4-methoxy-3-(3-methoxypropoxy)benzyl]morpholine-2-carboxamide hydrochloride] here?
Answer: < 1000 nM

Question: For `COCCCn1cc(CN(C(=O)[C@H]2CNCCO2)C2CC2)c2ccccc21` [Example 39], which IC50 [1] is on record?
Answer: 13 nM

Question: With `COCCCOc1cc(CN(C(=O)[C@H]2CNCCO2)C2CC2)cc2ccccc12` [Example 4, (2R)—N-cyclopropyl-N-{[4-(3-methoxypropoxy)-2-naphthyl]methyl}morpholin-2-carboxamide hydrochloride] as the compound, how does the IC50 [1] read?
Answer: 30.2 nM
